Drawing on patent publication US20120135923A1, “Use of Melanocortins to Treat Dyslipidemia” (IPSEN PHARMA, S.A.S., priority 2009, published 2012), this text covers EC50 and Kb for 16 compounds.

Common to all, as to experiment: cyclic AMP bioassay (ECL) in CHO-K1 cells
What all share (format): cell-based

The target in one assay is T1, hMC5-R (Homo sapiens, UniProt P33032).
T1 construct: expressed in transfected cells; host or cells: CHO-K1

In the next assay the target is T2, hMC3-R (Homo sapiens, UniProt P41968).
T2 construct: expressed in transfected cells; host or cells: CHO-K1

A further assay addresses T3, hMC1-R (Homo sapiens, UniProt Q01726).
T3 construct: expressed in transfected cells; host or cells: CHO-K1

Another assay addresses T4, hMC4-R (Homo sapiens, UniProt P32245).
T4 construct: expressed in transfected cells; host or cells: CHO-K1

The mark [1] stands for this setting: Table 9A/9B, read-out: EC50 hMC5-R.
Setting [2] is: Table 9A/9B, read-out: EC50 hMC3-R.
The mark [3] stands for this setting: Table 9A/9B, read-out: EC50 hMC1-R.
Setting [4] is: Table 9A/9B, read-out: EC50 hMC4-R.

For orientation: pEC50 means the negative decadic logarithm of the EC50, by convention in mol/L.

Molecules are shown by their SMILES. pEC50: −log10 of the molar value. Read-outs that look alike come from different tables or passages of the source. Bridge positions count the residues as written; N and C are the ends. Square brackets hold non-standard residues; d marks the D form. Peptide text beside a SMILES is read from it. d2Nal = N[C@H](Cc1ccc2ccccc2c1)C(=O)O; Bta = N[C@@H](Cc1csc2ccccc12)C(=O)O; Pen = CC(C)(S)[C@H](N)C(=O)O; Nle = CCCC[C@H](N)C(=O)O; Ava = NCCCCC(=O)O; GABA = NCCCC(=O)O; βAla = NCCC(=O)O

T2 sequence (P41968 whole entry): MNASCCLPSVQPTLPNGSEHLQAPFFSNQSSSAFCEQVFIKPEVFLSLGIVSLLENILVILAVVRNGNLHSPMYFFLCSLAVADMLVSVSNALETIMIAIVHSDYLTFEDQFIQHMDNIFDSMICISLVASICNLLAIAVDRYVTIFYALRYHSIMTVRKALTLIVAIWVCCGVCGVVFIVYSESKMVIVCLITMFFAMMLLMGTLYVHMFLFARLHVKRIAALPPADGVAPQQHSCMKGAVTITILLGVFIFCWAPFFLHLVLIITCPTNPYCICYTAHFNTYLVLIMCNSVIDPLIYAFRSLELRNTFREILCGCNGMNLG
T3 sequence (Q01726 whole entry): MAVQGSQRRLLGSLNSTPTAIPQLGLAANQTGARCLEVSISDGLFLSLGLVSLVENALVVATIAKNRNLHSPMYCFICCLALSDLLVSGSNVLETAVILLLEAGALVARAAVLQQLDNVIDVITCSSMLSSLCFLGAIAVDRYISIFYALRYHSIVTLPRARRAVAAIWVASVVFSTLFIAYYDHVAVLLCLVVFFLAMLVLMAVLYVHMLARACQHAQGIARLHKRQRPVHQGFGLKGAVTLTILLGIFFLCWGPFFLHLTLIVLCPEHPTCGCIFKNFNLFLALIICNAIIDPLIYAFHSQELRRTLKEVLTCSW
T4 sequence (P32245 whole entry): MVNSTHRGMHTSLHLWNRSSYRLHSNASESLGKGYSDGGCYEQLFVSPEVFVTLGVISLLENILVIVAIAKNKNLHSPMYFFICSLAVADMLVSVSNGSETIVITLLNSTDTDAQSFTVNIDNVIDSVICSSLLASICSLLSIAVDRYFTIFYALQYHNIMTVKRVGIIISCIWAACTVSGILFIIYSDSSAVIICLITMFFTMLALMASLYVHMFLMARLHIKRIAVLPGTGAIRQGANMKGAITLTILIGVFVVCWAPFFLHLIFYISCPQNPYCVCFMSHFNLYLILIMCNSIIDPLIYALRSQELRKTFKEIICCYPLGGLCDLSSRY
T1 sequence (P33032 whole entry): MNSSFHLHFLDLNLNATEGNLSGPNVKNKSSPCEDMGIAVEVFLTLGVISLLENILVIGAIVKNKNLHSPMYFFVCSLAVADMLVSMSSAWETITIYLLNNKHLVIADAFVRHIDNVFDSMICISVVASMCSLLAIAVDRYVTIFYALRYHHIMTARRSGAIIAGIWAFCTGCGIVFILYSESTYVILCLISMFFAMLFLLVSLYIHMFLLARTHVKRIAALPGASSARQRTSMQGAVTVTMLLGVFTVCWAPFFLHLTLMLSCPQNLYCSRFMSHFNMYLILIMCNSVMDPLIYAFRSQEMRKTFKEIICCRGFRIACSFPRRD
Procedure for hMC5-R: Intracellular cyclic AMP (cAMP) levels were determined by an electrochemiluminescence (ECL) assay (Meso Scale Discovery®, Gaithersburg, Md.; referred to hereinafter as MSD). […] Transgenic CHO-K1 cells stably expressing hMC receptor subtypes 1, 3, 4 or 5 were dispensed at a density of approximately 7,000 cells/well in 384-well Multi-Array®plates (MSD) containing integrated carbon electrodes and coated with anti-cAMP antibody. Increasing concentrations of the test compounds were added and the cells were incubated for approximately 40 minutes at approximately 37° C. […] At the end of the second incubation period read buffer (Tris-buffered solution containing an ECL co-reactant and Triton X-100 at ph 7.8) was added and the cAMP levels in the cell lysates were immediately determined by ECL detection with a Sector Imager 6000 Reader® (MSD). Data were analyzed using a computer-assisted non-linear regression analysis (XL fit; IDBS) and reported as either an EC50 value or a Kb value.
The Kb value reflects the potency of an antagonist and is determined by Schild analysis. In brief, concentration-response curves of an agonist are carried out in the presence of increasing concentrations of an antagonist. […] It is calculated by extrapolating the line on a Schild plot to zero on the y-axis.

For the compound `CC(=O)N[C@H]1CSSC[C@@H](C(=O)N2CCC[C@H]2C(=O)N2CCC[C@H]2C(=O)N[C@@H](CCCCN)C(=O)N[C@@H](CC(=O)O)C(=O)NCCC(=O)N[C@@H](Cc2ccc(O)cc2)C(=O)NCC(=O)N[C@@H](CCCNC(=N)N)C(=O)N[C@@H](CCCNC(=N)N)C(=O)N[C@@H](CCCNC(=N)N)C(=O)N[C@@H](CCCNC(=N)N)C(=O)N[C@@H](CCCNC(=N)N)C(=O)N[C@@H](CCC(N)=O)C(=O)N[C@@H](CCCNC(=N)N)C(=O)N[C@@H](CCCNC(=N)N)C(=O)N[C@@H](CCCNC(=N)N)C(N)=O)NC(=O)[C@H](C)NC(=O)[C@H](Cc2csc3ccccc23)NC(=O)[C@H](CCCNC(=N)N)NC(=O)[C@@H](Cc2ccc3ccccc3c2)NC(=O)[C@H](Cc2c[nH]cn2)NC(=O)[C@H](CCC(=O)O)NC1=O` (Ac-CEH[d2Nal]R[Bta]ACPPKD[βAla]YGRRRRRQRRR-NH2; disulfide 1-8), the values for the pEC50 at hMC5-R and at hMC1-R were 6.06 and 6.94, respectively. Also, the Kb on hMC3-R was 44.6 nM; at hMC4-R, 28.4 nM.

For the compound `CCCC[C@@H](C(=O)N[C@H]1CSSC[C@@H](C(N)=O)NC(=O)[C@H](Cc2c[nH]c3ccccc23)NC(=O)[C@H](CCCNC(=N)N)NC(=O)[C@@H](Cc2ccccc2)NC(=O)[C@H](Cc2cnc[nH]2)NC(=O)[C@@H](C)NC1=O)N1C(=O)N[C@@H](CC(C)C)C1=O` [Hydantoin(C(O)-(Leu-Nle))-c(Cys-D-Ala-His-D-Phe-Arg-Trp-Cys)-NH2], the results for the pEC50 at hMC3-R and at hMC4-R were 8.01 and 8.74, respectively.

Turning to `CCCC[C@H](NC(C)=O)C(=O)N[C@H]1CC(=O)NCCCC[C@@H](C(N)=O)NC(=O)[C@H](C)NC(=O)[C@H](Cc2c[nH]c3ccccc23)NC(=O)[C@H](CCCNC(=N)N)NC(=O)[C@@H](Cc2ccc3ccccc3c2)NC(=O)[C@H](Cc2c[nH]cn2)NC1=O` [Ac-Nle-c(Asp-His-D-2-Nal-Arg-Trp-Ala-Lys)-NH2], the pEC50 on hMC1-R (Table 9C/9D, read-out: EC50 hMC1-R) is 9.21.

Regarding `CCCC[C@H](NC(C)=O)C(=O)N[C@H]1CC(=O)NCCCC[C@@H](C(N)=O)NC(=O)[C@H](Cc2csc3ccccc23)NC(=O)[C@H](CCCNC(=N)N)NC(=O)[C@@H](Cc2ccccc2)NC(=O)[C@H](Cc2c[nH]cn2)NC(=O)[C@@H](C)NC1=O` [Ac-Nle-c(Asp-D-Ala-His-D-Phe-Arg-Bal-Lys)-NH2] (Ac-[Nle]D[dA]H[dF]R[Bta]K-NH2; lactam 2-8), the pEC50 at hMC5-R (setting [1]) is less than 5.00; at hMC3-R (setting [2]) it was 8.49; at hMC1-R (setting [3]), 9.03; at hMC4-R (setting [4]), 8.78.

Take `CCCC[C@H](N)C(=O)N[C@H]1CSSC[C@@H](C(N)=O)NC(=O)CCCCNC(=O)[C@H](Cc2c[nH]c3ccccc23)NC(=O)[C@H](CCCNC(=N)N)NC(=O)[C@@H](Cc2ccccc2)NC(=O)[C@H](Cc2c[nH]cn2)NC1=O` [Nle-c(Cys-His-D-Phe-Arg-Trp-Apn-Cys)-NH2] (H-[Nle]CH[dF]RW[Ava]C-NH2; disulfide 2-8): the negative logarithm of the EC50 (pEC50) at hMC5-R (setting [1]) was 8.51; on hMC3-R (setting [2]) it was 9.57; at hMC1-R (setting [3]) it was 9.51; on hMC4-R (setting [4]), 10.74.

Turning to `CC(=O)N[C@@H](CCCNC(=N)N)C(=O)N[C@H]1CSSC[C@@H](C(N)=O)NC(=O)[C@H](Cc2c[nH]c3ccccc23)NC(=O)[C@H](CCCNC(=N)N)NC(=O)[C@@H](Cc2ccc3ccccc3c2)NC(=O)[C@H](Cc2c[nH]cn2)NC(=O)[C@@H](C)NC1=O` [Ac-Arg-c(Cys-D-Ala-His-D-2-Nal-Arg-Trp-Cys)-NH2], the negative-log EC50 (pEC50) at hMC5-R is 5.95; at hMC1-R, 6.71. The Kb was determined as 5.72 nM on hMC3-R and 1.58 nM on hMC4-R.

Take `N=C(N)NCCC[C@@H]1NC(=O)[C@@H](Cc2ccccc2)NC(=O)[C@H](Cc2cnc[nH]2)NC(=O)[C@H](CCC(=O)O)NC(=O)[C@@H](NC(=O)[C@H](CCCNC(=N)N)N2C(=O)CNC2=O)CSSC[C@@H](C(N)=O)NC(=O)[C@H](Cc2c[nH]c3ccccc23)NC1=O` [Hydantoin(C(O)-(Gly-Arg))-c(Cys-Glu-His-D-Phe-Arg-Trp-Cys)-NH2]: the pEC50 at hMC5-R (Table 11, read-out: EC50 hMC5) was 6.47; on hMC3-R (Table 11, read-out: EC50 hMC3), 8.44; at hMC1-R (Table 11, read-out: EC50 hMC1), 8.00; at hMC4-R (Table 11, read-out: EC50 hMC4), 10.16.

With `CCCC[C@@H]1NC(=O)N(CC(=O)N[C@H]2CSSC(C)(C)[C@@H](C(N)=O)NC(=O)[C@H](Cc3c[nH]c4ccccc34)NC(=O)[C@H](CCCNC(=N)N)NC(=O)[C@@H](Cc3ccccc3)NC(=O)[C@H](Cc3cnc[nH]3)NC(=O)[C@@H](C)NC2=O)C1=O` [Hydantoin(C(O)-(Nle-Gly))-c(Cys-D-Ala-His-D-Phe-Arg-Trp-Pen)-NH2], the pEC50 on hMC5-R was 6.45; at hMC3-R it was 7.67; on hMC1-R, 7.77; on hMC4-R it was 9.23.

In the case of `CCCC[C@@H](C(=O)N[C@H]1CSSC[C@@H](C(N)=O)NC(=O)[C@H](Cc2c[nH]c3ccccc23)NC(=O)[C@H](CCCNC(=N)N)NC(=O)[C@@H](Cc2ccccc2)NC(=O)[C@H](Cc2cnc[nH]2)NC(=O)[C@@H](C)NC1=O)N1C(=O)N[C@@H](C(C)C)C1=O` [Hydantoin(C(O)-(Val-Nle))-c(Cys-D-Ala-His-D-Phe-Arg-Trp-Cys)-NH2], the negative-log EC50 (pEC50) on hMC3-R is 8.34; at hMC4-R, 9.01.

Regarding `CC(=O)N[C@H]1CSSC[C@@H](C(=O)N2CCC[C@H]2C(=O)N2CCC[C@H]2C(=O)N[C@@H](CCCCN)C(=O)N[C@@H](CC(=O)O)C(=O)NCCC(=O)N[C@@H](Cc2ccc(O)cc2)C(=O)NC(C)(C)C(=O)N[C@@H](CCCNC(=N)N)C(=O)N[C@@H](CCCCN)C(=O)N[C@@H](CCCCN)C(=O)N[C@@H](CCCNC(=N)N)C(=O)N[C@@H](CCCNC(=N)N)C(=O)N[C@@H](CCC(N)=O)C(=O)N[C@@H](CCCNC(=N)N)C(=O)N[C@@H](CCCNC(=N)N)C(=O)N[C@@H](CCCNC(=N)N)C(N)=O)NC(=O)[C@H](C)NC(=O)[C@H](Cc2csc3ccccc23)NC(=O)[C@H](CCCNC(=N)N)NC(=O)[C@@H](Cc2ccc3ccccc3c2)NC(=O)[C@H](Cc2c[nH]cn2)NC(=O)[C@H](CCC(=O)O)NC1=O`, the pEC50 at hMC5-R (cAMP, CHO-K1 cells expressing hMC5-R, read-out: EC50 hMC5-R) was 6.24; on hMC1-R (cAMP, CHO-K1 cells expressing hMC1-R, read-out: EC50 hMC1-R), 7.17. Besides, the Kb on hMC3-R (antagonist potency by Schild analysis, cAMP, CHO-K1 cells expressing hMC3-R, read-out: Kb hMC3-R) was 439 nM; on hMC4-R (antagonist potency by Schild analysis, cAMP, CHO-K1 cells expressing hMC4-R, read-out: Kb hMC4-R) it was 46.5 nM.

On to `CCCC[C@H](NC(C)=O)C(=O)N[C@H]1CSSC(C)(C)[C@@H](C(N)=O)NC(=O)CCCNC(=O)[C@H](Cc2c[nH]c3ccccc23)NC(=O)[C@H](CCCNC(=N)N)NC(=O)[C@@H](Cc2ccccc2)NC(=O)[C@H](Cc2c[nH]cn2)NC1=O` [Ac-Nle-c(Cys-His-D-Phe-Arg-Trp-Gaba-Pen)-NH2] (Ac-[Nle]CH[dF]RW[GABA][Pen]-NH2; disulfide 2-8), for which the pEC50 was 8.41 on hMC5-R (setting [1]), 9.62 at hMC3-R (setting [2]), 9.55 on hMC1-R (setting [3]) and 10.55 at hMC4-R (setting [4]).

As to `C[C@@H]1NC(=O)N(CC(=O)N[C@H]2CSSC[C@@H](C(N)=O)NC(=O)[C@H](Cc3c[nH]c4ccccc34)NC(=O)[C@H](CCCNC(=N)N)NC(=O)[C@@H](Cc3ccccc3)NC(=O)[C@H](Cc3cnc[nH]3)NC(=O)[C@@H](C)NC2=O)C1=O` [Hydantoin(C(O)-(Ala-Gly))-c(Cys-D-Ala-His-D-Phe-Arg-Trp-Cys)-NH2], the results for the negative-log EC50 (pEC50) at hMC5-R, at hMC3-R and at hMC4-R were 6.29, 8.65 and 9.62, respectively.

Take `CCCC[C@H](NC(C)=O)C(=O)N[C@@H]1C(=O)N[C@H](C)C(=O)N[C@@H](Cc2c[nH]cn2)C(=O)N[C@H](Cc2ccccc2)C(=O)N[C@@H](CCCNC(=N)N)C(=O)N[C@@H](Cc2c[nH]c3ccccc23)C(=O)N[C@H](C(N)=O)CSSC1(C)C` [Ac-Nle-c(Pen-D-Ala-His-D-Phe-Arg-Trp-Cys)-NH2]: the figures for the pEC50 on hMC3-R and at hMC4-R were 8.72 and 9.27, respectively.

As for `C[C@H]1NC(=O)[C@@H](NC(=O)CN2C(=O)N[C@@H](CCCNC(=N)N)C2=O)CSSC[C@@H](C(N)=O)NC(=O)[C@H](Cc2c[nH]c3ccccc23)NC(=O)[C@H](CCCNC(=N)N)NC(=O)[C@@H](Cc2ccccc2)NC(=O)[C@H](Cc2cnc[nH]2)NC1=O` [Hydantoin(C(O)-(Arg-Gly))-c(Cys-D-Ala-His-D-Phe-Arg-Trp-Cys)-NH2], the negative logarithm of the EC50 (pEC50) was 7.74 on hMC3-R, 8.06 on hMC1-R and 9.30 on hMC4-R.

For `C[C@H]1NC(=O)[C@@H](NC(=O)[C@H](CCCNC(=N)N)N2C(=O)CNC2=O)CSSC[C@@H](C(N)=O)NC(=O)[C@H](Cc2c[nH]c3ccccc23)NC(=O)[C@H](CCCNC(=N)N)NC(=O)[C@@H](Cc2ccccc2)NC(=O)[C@H](Cc2cnc[nH]2)NC1=O` [Hydantoin(C(O)-(Gly-Arg))-c(Cys-D-Ala-His-D-Phe-Arg-Trp-Cys)-NH2], the pEC50 on hMC3-R is 8.29; at hMC1-R it was 8.05; at hMC4-R, 9.22.

As for `N=C(N)NCCC[C@@H]1NC(=O)[C@@H](Cc2ccccc2)NC(=O)[C@H](Cc2cnc[nH]2)NC(=O)[C@H](CCC(=O)O)NC(=O)[C@@H](NC(=O)CN2C(=O)CNC2=O)CSSC[C@@H](C(N)=O)NC(=O)[C@H](Cc2c[nH]c3ccccc23)NC1=O` [Hydantoin(C(O)-(Gly-Gly))-c(Cys-Glu-His-D-Phe-Arg-Trp-Cys)-NH2], the negative-log EC50 (pEC50) at hMC3-R (Table 11, read-out: EC50 hMC3) is 8.09; on hMC1-R (Table 11, read-out: EC50 hMC1), 6.91.
